From patent US4737504A, “5-fluoro-and 8-fluoro-trimetoquinol compounds and the processes for their preparation” (priority 1986, dated 1988)
Like-named read-outs stand apart in the source and are kept apart here.

Legend:
[1] = tested on: human platelets (U46619-induced aggregation); test: inhibition of U46619-induced platelet aggregation in presence of aspirin, human platelet-rich plasma; type: cell-based; settings: U46619 0.5-1.5 μM, aspirin 1 mM
Procedure: (§1) The antiaggregatory and antisecretory activity on human platelets was determined by evaluating the in vitro aggregation and [^14 C]serotonin secretion in human platelet preparations. Blood was taken by venipuncture from normal human volunteers who were reported to be free of medication for at least 10 days before blood drawing. Venous blood samples were mixed with acid-citrate dextrose solution (9:1) and centrifuged at 120×g for 15 minutes at room temperature to obtain platelet-rich plasma, PRP, (Huzoor-Akbar et al., Biochem. Pharmacol., 30: 2013-2020, 1981). The PRP was transferred to polypropylene tubes and stored under an atmosphere of 8% CO2. The remaining blood was centrifuged at 1000×g for 10 minutes to obtain platelet-poor plasma. […] Platelet counts varied between 280,000 to 320,000 per cmm or were adjusted to 300,000 per cmm for the aggregation and secretion experiments. All studies were conducted within 2 hours after PRP recovery.
(§2) For aggregation studies, 0.5 ml of PRP was incubated with drug or vehicle (1-5 μl) for 1 minute at 37° C. before the initiation of aggregation with inducers. […] In all experiments, the minimum concentration of inducer (adenosine diphosphate ADP; epinephrine, E; 15S-hydroxy-11α,9α-epoxymethanoprosta-5Z,13E-dienoic acid, U46619; collagen; and arachidonic acid, AA) which caused maximal irreversible aggregation within each PRP preparation was used. Aggregation was monitored for 4 to 6 minutes after the addition of an inducer and data were presented as a percentage inhibition of either slope or maximal light transmittance changes in the presence of varying drug concentrations.

[2] = tested on: human platelets (arachidonic acid-induced serotonin secretion); test: inhibition of arachidonic acid-induced serotonin secretion, human platelet-rich plasma; type: cell-based; settings: arachidonic acid 100-300 μM
Procedure: as §1, §2
(§3) Secretion data were calculated as the net increase of serotonin released into the supernatant by each inducer and expressed as a percentage of the total radioactivity in platelets Mayo et al., Biochem. Pharmacol., 30: 2237-2241, 1981. The effect of compounds on serotonin release was expressed as the percentage of inhibition of the maximum release by each inducer and plotted against the log molar concentrations of each agent.

[3] = tested on: human platelets (epinephrine-induced serotonin secretion); test: inhibition of epinephrine-induced serotonin secretion, human platelet-rich plasma; type: cell-based; settings: epinephrine 1-10 μM
Procedure: as §1, §2, §3

[4] = phenol acidities (pKa) determined spectrophotometrically; type: physicochemical; settings: for pKa: phenol, tris(hydroxymethyl)aminomethane buffer, UV; for times more acidic than 1: relative to trimetoquinol 1
Procedure: Phenol acidities (pKa) were determined spectrophotometrically, as described by Albert et al., "The determination of Ionization Constants" 3rd Ed., Chapman and Hall, London and New York, 1984, by measuring the absorption as a function of pH in tris(hydroxymethyl)aminomethane buffer. Since the catechols tended to oxidize in basic media the buffers were degassed and flushed with argon prior to use.

[5] = tested on: human platelets (epinephrine-induced aggregation); test: inhibition of the secondary phase of epinephrine-induced platelet aggregation, human platelet-rich plasma; type: cell-based; settings: epinephrine 1-10 μM
Procedure: as §1, §2

[6] = tested on: human platelets (collagen-induced serotonin secretion); test: inhibition of collagen-induced serotonin secretion, human platelet-rich plasma; type: cell-based; settings: collagen 10-100 μg/ml
Procedure: as §1, §2, §3

[7] = tested on: human platelets; test: human platelet aggregation and serotonin release, inducers taken together; type: cell-based; settings: for inhibition of aggregation and serotonin release: each inducer
Procedure: as §1, §2, §3

[8] = tested on: human platelets (ADP-induced aggregation); test: inhibition of the secondary phase of ADP-induced platelet aggregation, human platelet-rich plasma; type: cell-based; settings: ADP 1-3 μM
Procedure: as §1, §2

[9] = tested on: human platelets (collagen-induced aggregation); test: inhibition of collagen-induced platelet aggregation, human platelet-rich plasma; type: cell-based; settings: collagen 10-100 μg/ml
Procedure: as §1, §2

[10] = tested on: human platelets (arachidonic acid-induced aggregation); test: inhibition of arachidonic acid-induced platelet aggregation, human platelet-rich plasma; type: cell-based; settings: arachidonic acid 100-300 μM
Procedure: as §1, §2

[11] = tested on: human platelets (ADP-induced serotonin secretion); test: inhibition of ADP-induced serotonin secretion, human platelet-rich plasma; type: cell-based; settings: ADP 1-3 μM
Procedure: as §1, §2, §3

[12] = read-out: IC50 platelet aggregation
[13] = read-out: pIC50 platelet aggregation (converted)
[14] = read-out: IC50 serotonin secretion
[15] = read-out: pIC50 serotonin secretion (converted)
[16] = read-out: IC50 platelet aggregation (secondary phase)
[17] = read-out: pIC50 platelet aggregation (secondary phase) (converted)

| Structure (SMILES) | IC50 [1, 12] | IC50 [1, 13] | IC50 [2, 14] | IC50 [2, 15] | IC50 [3, 14] | IC50 [3, 15] | pKa [4] | times more acidic than 1 [4] | IC50 [5, 16] | IC50 [5, 17] | IC50 [6, 14] | IC50 [6, 15] | inhibition of aggregation and serotonin release [7] | IC50 [8, 16] | IC50 [8, 17] | IC50 [9, 12] | IC50 [9, 13] | IC50 [10, 12] | IC50 [10, 13] | IC50 [11, 14] | also measured |
| --- | --- | --- | --- | --- | --- | --- | --- | --- | --- | --- | --- | --- | --- | --- | --- | --- | --- | --- | --- | --- | --- |
| COc1cc(CC2NCCc3c2cc(O)c(O)c3F)cc(OC)c1OC (stereo not shown) [Compound 5-F-TMQ, 5-fluoro-trimetoquinol] | 7.4 µM | 7.41 µM | 55 µM | 55 µM | 7.4 µM | 7.59 µM | 8.11 ± 0.15 | 4 times | 14.8 µM | 14.8 µM | 13.2 µM | 13.2 µM | inhibitors of aggregation and serotonin release by each inducer | 15.1 µM | 15.1 µM | 51.3 µM | 51.3 µM | 77.5 µM | 77.6 µM | 17 µM | IC50 [11, 15]: 17 µM |
| COc1cc(CC2NCCc3cc(O)c(O)c(F)c32)cc(OC)c1OC (stereo not shown) [Compound 8-F-TMQ, 8-fluoro-trimetoquinol] | 3.9 µM | 3.89 µM | 21.9 µM | 21.9 µM | 3.5 µM | 3.47 µM | 7.86 ± 0.15 | 8 times | 11 µM | 11 µM | 7.6 µM | 7.59 µM | inhibitors of aggregation and serotonin release by each inducer | 6.5 µM | 6.46 µM | 9.8 µM | 9.77 µM | 26.2 µM | 26.3 µM | 6.6 µM | potency relative to 2 as an inhibitor of human platelet activation ([7]; relative to analog 2): about 2 fold; IC50 [11, 15]: 6.61 µM |
